Measurements: the supplement of paper PMC11061612

Experiments:
Assay in all cases: combination Emax (second highest fraction inhibited in the dose matrix, 72 h); higher = more inhibition; extreme values may be limits of the assay
WM793B (Melanoma) = test system: WM793B (Melanoma)
How it was run: (§1)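 Bliss excess equals the observed combination effect minus the expected value EA + EB − EA·EB, where EA and EB are the effects of each agent alone. Combination Emax is the second-highest inhibition within the matrix. Inhibition was scaled from CellTiter-Glo 2.0 luminescence, with 0 set by vehicle wells and 1 by blank wells, after 72 hours of two-drug dosing of cells plated in 1536-well plates.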

[1] = test system: FADU (Head and Neck Carcinoma)
How it was run: as §1

SF268 (Low Grade Glioma) = test system: SF268 (Low Grade Glioma)
How it was run: as §1

[2] = test system: OPM-2 (Plasma Cell Myeloma)
How it was run: as §1

[3] = test system: OAW-42 (Ovarian Carcinoma)
How it was run: as §1

[4] = test system: CAL-62 (Thyroid Gland Carcinoma)
How it was run: as §1

[5] = test system: PSN1 (Pancreatic Carcinoma)
How it was run: as §1

[6] = test system: HEC-1 (Endometrial Carcinoma)
How it was run: as §1

[7] = test system: LB996-RCC (Kidney Carcinoma)
How it was run: as §1

[8] = test system: RCM-1 (Colorectal Carcinoma)
How it was run: as §1

[9] = test system: GP5d (Colorectal Carcinoma)
How it was run: as §1

[10] = test system: COLO-680N (Esophageal Squamous Cell Carcinoma)
How it was run: as §1

[11] = test system: NCI-H2342 (Lung Adenocarcinoma)
How it was run: as §1

[12] = test system: SU-DHL-10 (B-Cell Non-Hodgkin's Lymphoma)
How it was run: as §1

SF539 (Glioblastoma) = test system: SF539 (Glioblastoma)
How it was run: as §1

[13] = test system: RKN (Other Solid Carcinomas)
How it was run: as §1

[14] = test system: MFE-280 (Endometrial Carcinoma)
How it was run: as §1

[15] = test system: PC-3_[JPC-3] (Lung Adenocarcinoma)
How it was run: as §1

[16] = test system: LK-2 (Squamous Cell Lung Carcinoma)
How it was run: as §1

IST-MES1 (Mesothelioma) = test system: IST-MES1 (Mesothelioma)
How it was run: as §1

| SMILES | combination Emax (WM793B (Melanoma)) | combination Emax [1] | combination Emax (SF268 (Low Grade Glioma)) | combination Emax [2] | combination Emax [3] | combination Emax [4] | combination Emax [5] | combination Emax [6] | combination Emax [7] | combination Emax [8] | combination Emax [9] | combination Emax [10] | combination Emax [11] | combination Emax [12] | combination Emax (SF539 (Glioblastoma)) | combination Emax [13] | combination Emax [14] | combination Emax [15] | combination Emax [16] | combination Emax (IST-MES1 (Mesothelioma)) |
| --- | --- | --- | --- | --- | --- | --- | --- | --- | --- | --- | --- | --- | --- | --- | --- | --- | --- | --- | --- | --- |
| NC1(C(=O)N[C@@H](CCO)c2ccc(Cl)cc2)CCN(c2ncnc3[nH]ccc23)CC1 [Capivasertib] + CCN(CCO)CCCOc1ccc2c(Nc3cc(CC(=O)Nc4cccc(F)c4)[nH]n3)ncnc2c1 [AZD2811] (first compound max 10 µM, 7x7, partner max 1 µM) | 0.527 | 0.36 | 0.416 | 0.981 | 0.48 | 0.308 | 0.371 | 0.212 | 0.71 | 0.197 | 0.718 | 0.195 | 0.482 | 1 | 0.723 | 0.254 | 0.661 | 0.344 | 0.925 | 0.322 |
| NC1(C(=O)N[C@@H](CCO)c2ccc(Cl)cc2)CCN(c2ncnc3[nH]ccc23)CC1 [Capivasertib] + COc1nnc2ccc(N3CCC(c4ccc(OCCN5CCN(C)C(=O)[C@H]5C)cc4)CC3)nn12 [AZD5153] (first compound max 10 µM, 7x7, partner max 1 µM) | 0.616 | 0.65 | 0.488 | 1 | 0.619 | 0.751 | 0.256 | 0.688 | 0.72 | 0.613 | 0.873 | 0.276 | 0.46 | 1 | 0.707 | 0.449 | 0.608 | 0.349 | 0.422 | 0.45 |
| NC1(C(=O)N[C@@H](CCO)c2ccc(Cl)cc2)CCN(c2ncnc3[nH]ccc23)CC1 [Capivasertib] + C[C@@H]1COCCN1C2=NC(=NC(=C2)C3(CC3)[S@](=N)(=O)C)C4=C5C=CNC5=NC=C4 [AZD6738] (first compound max 10 µM, 7x7, partner max 10 µM) | 0.842 | 0.594 | 0.644 | 1 | 0.644 | 0.784 | 0.536 | 0.347 | 0.823 | 0.665 | 0.829 | 0.373 | 0.585 | 1 | 0.879 | 0.272 | 0.636 | 0.441 | 0.675 | 0.522 |
| NC1(C(=O)N[C@@H](CCO)c2ccc(Cl)cc2)CCN(c2ncnc3[nH]ccc23)CC1 [Capivasertib] + Cn1cnc2c(F)c(Nc3ccc(Br)cc3Cl)c(C(=O)NOCCO)cc21 [Selumetinib] (first compound max 10 µM, 7x7, partner max 10 µM) | 0.768 | 0.531 | 0.315 | 1 | 0.548 | 0.557 | 0.772 | 0.239 | 0.678 | 0.668 | 0.807 | 0.392 | 0.381 | 1 | 0.68 | 0.479 | 0.68 | 0.382 | 0.467 | 0.366 |
| COc1cc2ncnc(Nc3ccc(F)c(Cl)c3)c2cc1OCCCN1CCOCC1 [Gefitinib] + CC(C)n1c(=O)n(C)c2cnc3cc(F)c(-c4ccc(OCCCN5CCCCC5)nc4)cc3c21 [AZD1390] (first compound max 10 µM, 7x7, partner max 0.3 µM) | 0.142 | 0.471 | 0.155 | 0.203 | 0.107 | 0 | 0.102 | 0.0663 | 0.391 | 0.41 | 0.281 | 0.213 | 0.0812 | 0.723 | 0.143 | 0.175 | 0.246 | 0.67 | 0.2 | 0.17 |
| CS(=O)(=O)CCNCc1ccc(-c2ccc3ncnc(Nc4ccc(OCc5cccc(F)c5)c(Cl)c4)c3c2)o1 [Lapatinib] + C[C@@H](Oc1cc(-c2cnn(C3CCNCC3)c2)cnc1N)c1c(Cl)ccc(F)c1Cl [Crizotinib] (first compound max 10 µM, 7x7, partner max 10 µM) | 0.973 | 0.931 | 0.902 | 0.944 | 0.732 | 0.776 | 0.806 | 0.182 | 0.98 | 0.865 | 0.979 | 0.483 | 0.43 | 1 | 0.937 | 0.294 | 0.88 | 0.922 | 0.888 | 0.686 |
| CC(=O)c1c(C)c2cnc(Nc3ccc(N4CCNCC4)cn3)nc2n(C2CCCC2)c1=O [Palbociclib] + CC1(C)CCC(CN2CCN(c3ccc(C(=O)NS(=O)(=O)c4ccc(NCC5CCOCC5)c([N+](=O)[O-])c4)c(Oc4cnc5[nH]ccc5c4)c3)CC2)=C(c2ccc(Cl)cc2)C1 [Venetoclax] (first compound max 10 µM, 7x7, partner max 1 µM) | 0.327 | 0.17 | 0.254 | 0.38 | 0.105 | 0.151 | 0.437 | 0.0102 | 0.318 | 0.394 | 0.31 | 0.0584 | 0.0497 | 1 | 0.262 | 0.102 | 0.0835 | 0.176 | 0.102 | 0.253 |
| CC(=O)c1c(C)c2cnc(Nc3ccc(N4CCNCC4)cn3)nc2n(C2CCCC2)c1=O [Palbociclib] + Cc1c2c(nn1C)CSCc1cc(n(C)n1)CSc1cc(c3ccccc3c1)OCCCc1c(C(=O)O)n(C)c3c-2c(Cl)ccc13 [AZD5991] (first compound max 10 µM, 7x7, partner max 1 µM) | 0.432 | 0.888 | 0.362 | 1 | 0.223 | 0.308 | 0.564 | 0.153 | 0.397 | 0.327 | 0.881 | 0.237 | 0.348 | 1 | 0.293 | 0.151 | 0.227 | 0.241 | 0.33 | 0.344 |
| CC(=O)c1c(C)c2cnc(Nc3ccc(N4CCNCC4)cn3)nc2n(C2CCCC2)c1=O [Palbociclib] + Cn1cnc2c(F)c(Nc3ccc(Br)cc3Cl)c(C(=O)NOCCO)cc21 [Selumetinib] (first compound max 10 µM, 7x7, partner max 10 µM) | 0.585 | 0.412 | 0.218 | 0.448 | 0.168 | 0.457 | 0.702 | 0.056 | 0.285 | 0.63 | 0.768 | 0.193 | 0.107 | 0.997 | 0.336 | 0.399 | 0.199 | 0.29 | 0.5 | 0.334 |
| COc1cccc(OCCCN)c1-c1cc(Nc2cnc(C#N)cn2)n[nH]1 [Prexasertib] + CCc1c2c(nc3ccc(O)cc13)-c1cc3c(c(=O)n1C2)COC(=O)[C@]3(O)CC [SN-38] (first compound max 1 µM, 7x7, partner max 0.3 µM) | 0.896 | 0.998 | 0.937 | 0.972 | 0.827 | 0.884 | 0.931 | 0.894 | 0.947 | 0.887 | 0.949 | 0.685 | 0.283 | 1 | 1 | 0.966 | 0.936 | 0.802 | 0.932 | 0.836 |
| C[C@@H](c1ccc2nccn2c1)n1nnc2ncc(-c3cnn(C)c3)nc21 [Savolitinib] + CC1(C)CCC(CN2CCN(c3ccc(C(=O)NS(=O)(=O)c4ccc(NCC5CCOCC5)c([N+](=O)[O-])c4)c(Oc4cnc5[nH]ccc5c4)c3)CC2)=C(c2ccc(Cl)cc2)C1 [Venetoclax] (first compound max 1 µM, 7x7, partner max 1 µM) | 0.137 | 0.154 | 0.104 | 0.246 | 0.188 | 0.142 | 0.12 | 0.133 | 0.0725 | 0.121 | 0.141 | 0.211 | 0.188 | 0.0782 | 0.161 | 0.195 | 0.186 | 0.129 | 0.165 | 0.198 |
| C[C@@H](c1ccc2nccn2c1)n1nnc2ncc(-c3cnn(C)c3)nc21 [Savolitinib] + Cc1c2c(nn1C)CSCc1cc(n(C)n1)CSc1cc(c3ccccc3c1)OCCCc1c(C(=O)O)n(C)c3c-2c(Cl)ccc13 [AZD5991] (first compound max 1 µM, 7x7, partner max 1 µM) | 0.168 | 0.546 | 0.167 | 1 | 0.21 | 0.131 | 0.174 | 0.107 | 0.125 | 0.114 | 0.861 | 0.183 | 0.321 | 1 | 0.21 | 0.117 | 0.116 | 0.284 | 0.202 | 0.189 |
| Cn1cnc2c(F)c(Nc3ccc(Br)cc3Cl)c(C(=O)NOCCO)cc21 [Selumetinib] + C=CCn1c(=O)c2cnc(Nc3ccc(N4CCN(C)CC4)cc3)nc2n1-c1cccc(C(C)(C)O)n1 [AZD1775] (first compound max 10 µM, partner max 1 µM) | 0.534 | 0.521 | 0.473 | 0.834 | 0.513 | 0.607 | 0.736 | 0.157 | 0.717 | 0.637 | 0.888 | 0.181 | 0.353 | 0.98 | 0.972 | 0.42 | 0.212 | 0.452 | 0.931 | 0.189 |
